Experimental data as given in patent US7973080B2 (Ambria Dermatology AB, priority 2003, dated 2011).

Tests used:
Enterococcus = experiment: MIC by standard blood agar dilution technique; conditions: MR fuc +
Description: (§1) The following bacteria were investigated: methicillin-resistant Staphylococcus aureus (MSRA), fucidic acid-resistant S. aureus, non-resistant S. pyogenes, coagulation-negative staphylococci (for resistance, see Table 1 below) vancomycin-resistant enterococci (Enterococcus CCUG van A and van B), non-resistant Escherichia coli, Acinetobacter resistant against cefadroxil, nitrofurantin, mecillinam, Serratia maltophilia resistant against most types of antibiotics, Enterobacter (for resistance, see Table 1 below; additionally resistant against cefadroxil and nitrofurantin), non-resistant α-streptococci, non-resistant Streptococcus Group G, Pseudomonas aeruginosa (for resistance, see Table 2 below). Inocula of 10^3 and 10^5 bacteria were used.

Escherichia coli = experiment: MIC by standard blood agar dilution technique
Description: as §1

Measured: MIC (% by weight of pentane-1,5-diol)

OCCCCCO [pentane-1,5-diol]
7.5 % by weight: Enterococcus; Enterococcus 921 × 57002, inoculate size 10^3, van −, tri − | Enterococcus; Enterococcus 921 × 57022, inoculate size 10^5, van −, cip +, tri + | Enterococcus; Enterococcus 921 × 57057, inoculate size 10^3, van −, tri − | Enterococcus; Enterococcus 921 × 57093, inoculate size 10^3, van −, tri + | Enterococcus; Enterococcus 921 × 57158, inoculate size 10^3, van −, tri + | Enterococcus; Enterococcus 921 × 57158, inoculate size 10^5, van −, tri + | Enterococcus; Enterococcus CCUG 37593 vanB, inoculate size 10^5, van + | Enterococcus; Enterococcus CCUG 37832 vanA, inoculate size 10^5, van + | Enterococcus; Enterococcus CCUG 43324 vanA, inoculate size 10^3, van +
5.0 % by weight: Enterococcus; Enterococcus 921 × 57022, inoculate size 10^3, van −, cip +, tri + | Enterococcus; Enterococcus CCUG 37593 vanB, inoculate size 10^3, van + | Enterococcus; Enterococcus CCUG 37832 vanA, inoculate size 10^3, van + | Enterococcus; Enterococcus CCUG 39128 vanA, inoculate size 10^3, van + | Escherichia coli; E. coli 921 × 57387, inoculate size 10^3, MR tri + | Escherichia coli; E. coli 921 × 57388, inoculate size 10^3 | Escherichia coli; E. coli 921 × 57389, inoculate size 10^3 | Escherichia coli; E. coli 921 × 57397, inoculate size 10^3 | Escherichia coli; E. coli 921 × 57418, inoculate size 10^3
10.0 % by weight: Enterococcus; Enterococcus 921 × 57002, inoculate size 10^5, van −, tri − | Enterococcus; Enterococcus 921 × 57093, inoculate size 10^5, van −, tri + | Enterococcus; Enterococcus CCUG 39128 vanA, inoculate size 10^5, van + | Enterococcus; Enterococcus CCUG 43324 vanA, inoculate size 10^5, van + | Escherichia coli; E. coli 921 × 57387, inoculate size 10^5, MR tri + | Escherichia coli; E. coli 921 × 57388, inoculate size 10^5 | Escherichia coli; E. coli 921 × 57389, inoculate size 10^5 | Escherichia coli; E. coli 921 × 57397, inoculate size 10^5 | Escherichia coli; E. coli 921 × 57418, inoculate size 10^5
10.9 % by weight: Enterococcus; Enterococcus 921 × 57057, inoculate size 10^5, van −, tri −
